US8865756B2, “Inhibitors of HCV NS5A” (Presidio Pharmaceuticals, Inc., priority 2008, dated 2014)

The compounds below were run on HCV 1b_Huh-Luc/Neo-ET cell line persistently expressing a bicistronic genotype 1b replicon in Huh 7 cells (assay: HCV replicon assay (luciferase readout)). Details: Hepatitis C virus, Huh-7, 72 h, read-out: Inhibition of HCV genotype 1b.
Type: cell-based
Description: Biological activity of the compounds of the invention was determined using an HCV replicon assay. The HCV 1b_Huh-Luc/Neo-ET cell line persistently expressing a bicistronic genotype 1b replicon in Huh 7 cells was obtained from ReBLikon GMBH. This cell line was used to test compound inhibition using luciferase enzyme activity readout as a measurement of compound inhibition of replicon levels.
On Day 1 (the day after plating), each compound is added in triplicate to the cells. Plates incubated for 72 h prior to running the luciferase assay. Enzyme activity was measured using a Bright-Glo Kit (cat. number E2620) manufactured by Promega Corporation. The following equation was used to generate a percent control value for each compound. % Control=(Average Compound Value/Average Control)*100
The EC50 value was determined using GraphPad Prism and the following equation: Y=Bottom+(Top−Bottom)/(1+10^((Log IC50−X)*HillSlope))
EC50 values of compounds are determined several times in the replicon assay.
Example compounds of the disclosed invention are illustrated in Tables 1-14 attached as appendices. The tables show inhibitory activity of many of the example compounds with respect to HCV 1b. […] The tables further provide mass spectrometry results for the synthesized example compounds.

`CC(C)(C)OC(=O)N[C@@H](C(=O)N1CCC[C@H]1c1ncc(C#Cc2ccc(-c3cnc([C@@H]4CCCN4C(=O)[C@H](NC(=O)OC(C)(C)C)c4ccccc4)[nH]3)cc2)[nH]1)c1ccccc1` [Compound 99] and `CC(C)(C)OC(=O)N[C@@H](C(=O)N1CCC[C@H]1c1ncc(-c2ccc(C#Cc3ccc(-c4cnc([C@@H]5CCCN5C(=O)[C@H](NC(=O)OC(C)(C)C)c5ccccc5)[nH]4)cc3)cc2)[nH]1)c1ccccc1` [Compound 150] cannot be ordered by EC50: under 1 nM for the first, under 1 nM for the second.

`O=C(N[C@@H](C(=O)N1CCC[C@H]1c1ncc(C#Cc2ccc(-c3cnc([C@@H]4CCCN4C(=O)[C@H](NC(=O)C4CC4)c4ccccc4)[nH]3)cc2)[nH]1)c1ccccc1)C1CC1` [Compound 100] and `O=C(N[C@@H](C(=O)N1CCC[C@H]1c1ncc(-c2ccc(C#Cc3ccc(-c4cnc([C@@H]5CCCN5C(=O)[C@H](NC(=O)C5CC5)c5ccccc5)[nH]4)cc3)cc2)[nH]1)c1ccccc1)C1CC1` [Compound 153] cannot be ordered by EC50: under 1 nM for the first, under 1 nM for the second.

`CC(C)(C)OC(=O)N1CCC[C@H]1c1ncc(C#Cc2ccc(-c3cnc([C@@H]4CCCN4C(=O)OC(C)(C)C)[nH]3)cc2)[nH]1` [Compound 101] and `CC(C)(C)OC(=O)NCC(=O)N1CCC[C@H]1c1ncc(C#Cc2ccc(-c3cnc([C@@H]4CCCN4C(=O)CNC(=O)OC(C)(C)C)[nH]3)cc2)[nH]1` [Compound 103] fall in the same range of EC50: 10 to 999 nM for the first, 10 to 999 nM for the second.

Compared with `O=C(N[C@@H](C(=O)N1CCC[C@H]1c1ncc(C#Cc2ccc(-c3cnc([C@@H]4CCCN4C(=O)[C@H](NC(=O)N4CCOCC4)c4ccccc4)[nH]3)cc2)[nH]1)c1ccccc1)N1CCOCC1` [Compound 102], `CN1CCN(C(=O)N[C@@H](C(=O)N2CCC[C@H]2c2ncc(C#Cc3ccc(-c4cnc([C@@H]5CCCN5C(=O)[C@H](NC(=O)N5CCN(C)CC5)c5ccccc5)[nH]4)cc3)[nH]2)c2ccccc2)CC1` [Compound 118] is higher in EC50: 1 to 9.9 nM for the first, 10 to 999 nM for the second.

First: C[C@@H](NC(=O)OC(C)(C)C)C(=O)N1CCC[C@H]1c1ncc(C#Cc2ccc(-c3cnc([C@@H]4CCCN4C(=O)[C@@H](C)NC(=O)OC(C)(C)C)[nH]3)cc2)[nH]1 [Compound 104]
Second: CC(C)[C@@H](NC(=O)OC(C)(C)C)C(=O)N1CCC[C@H]1c1ncc(C#Cc2ccc(-c3cnc([C@@H]4CCCN4C(=O)[C@H](NC(=O)OC(C)(C)C)C(C)C)[nH]3)cc2)[nH]1 [Compound 105]
The EC50 of the first is lower: 1 to 9.9 nM for the first, 10 to 999 nM for the second. The first is the more potent here.

Compared with `CC(C)(C)OC(=O)NC(C)(C)C(=O)N1CCC[C@H]1c1ncc(C#Cc2ccc(-c3cnc([C@@H]4CCCN4C(=O)C(C)(C)NC(=O)OC(C)(C)C)[nH]3)cc2)[nH]1` [Compound 106], `C[C@@H](NC(=O)OC(C)(C)C)C(=O)N1CCC[C@H]1c1ncc(-c2ccc(C#Cc3ccc(-c4cnc([C@@H]5CCCN5C(=O)[C@@H](C)NC(=O)OC(C)(C)C)[nH]4)cc3)cc2)[nH]1` [Compound 151] is lower in EC50: over 1000 nM for the first, 10 to 999 nM for the second. The second is the more potent here.

`CC(C)[C@@H](NC(=O)C1CC1)C(=O)N1CCC[C@H]1c1ncc(C#Cc2ccc(-c3cnc([C@@H]4CCCN4C(=O)[C@H](NC(=O)C4CC4)C(C)C)[nH]3)cc2)[nH]1` [Compound 107] and `C[C@@H](NC(=O)C1CC1)C(=O)N1CCC[C@H]1c1ncc(C#Cc2ccc(-c3cnc([C@@H]4CCCN4C(=O)[C@@H](C)NC(=O)C4CC4)[nH]3)cc2)[nH]1` [Compound 111] fall in the same range of EC50: 1 to 9.9 nM for the first, 1 to 9.9 nM for the second.

`CC(=O)N[C@@H](C(=O)N1CCC[C@H]1c1ncc(C#Cc2ccc(-c3cnc([C@@H]4CCCN4C(=O)[C@H](NC(C)=O)c4ccccc4)[nH]3)cc2)[nH]1)c1ccccc1` [Compound 109] and `COC(=O)N[C@@H](C(=O)N1CCC[C@H]1c1ncc(C#Cc2ccc(-c3cnc([C@@H]4CCCN4C(=O)[C@H](NC(=O)OC)c4ccccc4)[nH]3)cc2)[nH]1)c1ccccc1` [Compound 110] cannot be ordered by EC50: under 1 nM for the first, under 1 nM for the second.

`O=C([C@H](O)c1ccccc1)N1CCC[C@H]1c1ncc(C#Cc2ccc(-c3cnc([C@@H]4CCCN4C(=O)[C@H](O)c4ccccc4)[nH]3)cc2)[nH]1` [Compound 112] and `COC(=O)N[C@@H](C(=O)N1CCC[C@H]1c1ncc(C#Cc2ccc(-c3cnc([C@@H]4CCCN4C(=O)[C@@H](c4ccccc4)N(C)C)[nH]3)cc2)[nH]1)c1ccccc1` [Compound 123] cannot be ordered by EC50: under 1 nM for the first, under 1 nM for the second.

First: O=C(NCC(=O)N1CCC[C@H]1c1ncc(C#Cc2ccc(-c3cnc([C@@H]4CCCN4C(=O)CNC(=O)C4CC4)[nH]3)cc2)[nH]1)C1CC1 [Compound 113]
Second: C[C@@H](NC(=O)C1CC1)C(=O)N1CCC[C@H]1c1ncc(-c2ccc(C#Cc3ccc(-c4cnc([C@@H]5CCCN5C(=O)[C@@H](C)NC(=O)C5CC5)[nH]4)cc3)cc2)[nH]1 [Compound 154]
The EC50 of the first is higher: 10 to 999 nM for the first, 1 to 9.9 nM for the second.

`CC(C)[C@@H](NC(=O)OC(C)(C)C)C(=O)N1CCC[C@H]1C(=O)Nc1ccc(C#Cc2cnc([C@@H]3CCCN3C(=O)[C@H](NC(=O)OC(C)(C)C)C(C)C)[nH]2)cc1` [Compound 114] and `CC(C)[C@@H](NC(=O)OC(C)(C)C)C(=O)N1CCC[C@H]1C(=O)NCc1ccc(C#Cc2cnc([C@@H]3CCCN3C(=O)[C@H](NC(=O)OC(C)(C)C)C(C)C)[nH]2)cc1` [Compound 120] fall in the same range of EC50: 10 to 999 nM for the first, 10 to 999 nM for the second.

`CC(C)(C)OC(=O)N[C@@H](C(=O)N1CCC[C@H]1C(=O)Nc1ccc(C#Cc2cnc([C@@H]3CCCN3C(=O)[C@H](NC(=O)OC(C)(C)C)c3ccccc3)[nH]2)cc1)c1ccccc1` [Compound 115] and `CC(C)(C)OC(=O)N[C@@H](C(=O)N1CCC[C@H]1C(=O)NCc1ccc(C#Cc2cnc([C@@H]3CCCN3C(=O)[C@H](NC(=O)OC(C)(C)C)c3ccccc3)[nH]2)cc1)c1ccccc1` [Compound 119] cannot be ordered by EC50: under 1 nM for the first, under 1 nM for the second.

`CC(C)[C@@H](NC(=O)C1CC1)C(=O)N1CCC[C@H]1C(=O)Nc1ccc(C#Cc2cnc([C@@H]3CCCN3C(=O)[C@H](NC(=O)C3CC3)C(C)C)[nH]2)cc1` [Compound 116] and `CC(C)[C@@H](NC(=O)C1CC1)C(=O)N1CCC[C@H]1C(=O)NCc1ccc(C#Cc2cnc([C@@H]3CCCN3C(=O)[C@H](NC(=O)C3CC3)C(C)C)[nH]2)cc1` [Compound 122] fall in the same range of EC50: 1 to 9.9 nM for the first, 1 to 9.9 nM for the second.

`O=C(N[C@@H](C(=O)N1CCC[C@H]1C(=O)Nc1ccc(C#Cc2cnc([C@@H]3CCCN3C(=O)[C@H](NC(=O)C3CC3)c3ccccc3)[nH]2)cc1)c1ccccc1)C1CC1` [Compound 117] and `O=C(N[C@@H](C(=O)N1CCC[C@H]1C(=O)NCc1ccc(C#Cc2cnc([C@@H]3CCCN3C(=O)[C@H](NC(=O)C3CC3)c3ccccc3)[nH]2)cc1)c1ccccc1)C1CC1` [Compound 121] cannot be ordered by EC50: under 1 nM for the first, under 1 nM for the second.

Compared with `CC(C)(C)OC(=O)N[C@@H](C(=O)N1CCC[C@H]1C(=O)NCCc1ccc(C#Cc2cnc([C@@H]3CCCN3C(=O)[C@H](NC(=O)OC(C)(C)C)c3ccccc3)[nH]2)cc1)c1ccccc1` [Compound 124], `C[C@@H](NC(=O)[C@@H]1CCCN1C(=O)[C@H](NC(=O)OC(C)(C)C)c1ccccc1)c1ccc(C#Cc2cnc([C@@H]3CCCN3C(=O)[C@H](NC(=O)OC(C)(C)C)c3ccccc3)[nH]2)cc1` [Compound 129] is higher in EC50: under 1 nM for the first, 10 to 999 nM for the second.

Compared with `O=C(N[C@@H](C(=O)N1CCC[C@H]1C(=O)NCCc1ccc(C#Cc2cnc([C@@H]3CCCN3C(=O)[C@H](NC(=O)C3CC3)c3ccccc3)[nH]2)cc1)c1ccccc1)C1CC1` [Compound 125], `C[C@H](NC(=O)[C@@H]1CCCN1C(=O)[C@H](NC(=O)C1CC1)c1ccccc1)c1ccc(C#Cc2cnc([C@@H]3CCCN3C(=O)[C@H](NC(=O)C3CC3)c3ccccc3)[nH]2)cc1` [Compound 132] is higher in EC50: under 1 nM for the first, 10 to 999 nM for the second. The first is the more potent here.

`CC(C)[C@@H](NC(=O)OC(C)(C)C)C(=O)N1CCC[C@H]1C(=O)NCCc1ccc(C#Cc2cnc([C@@H]3CCCN3C(=O)[C@H](NC(=O)OC(C)(C)C)C(C)C)[nH]2)cc1` [Compound 126] and `CC(C)[C@@H](NC(=O)C1CC1)C(=O)N1CCC[C@H]1C(=O)NCCc1ccc(C#Cc2cnc([C@@H]3CCCN3C(=O)[C@H](NC(=O)C3CC3)C(C)C)[nH]2)cc1` [Compound 127] fall in the same range of EC50: 10 to 999 nM for the first, 10 to 999 nM for the second.

`COC(=O)N[C@@H](C(=O)N1CCC[C@H]1c1ncc(-c2ccc(C#Cc3cnc([C@@H]4CCCN4C(=O)[C@@H](c4ccccc4)N(C)C)[nH]3)cc2)[nH]1)c1ccccc1` [Compound 128] and `CN(C)[C@@H](C(=O)N1CCC[C@H]1c1ncc(-c2ccc(C#Cc3cnc([C@@H]4CCCN4C(=O)[C@H](NC(=O)C4CC4)c4ccccc4)[nH]3)cc2)[nH]1)c1ccccc1` [Compound 131] cannot be ordered by EC50: under 1 nM for the first, under 1 nM for the second.

Compared with `C[C@H](NC(=O)[C@@H]1CCCN1C(=O)[C@H](NC(=O)OC(C)(C)C)c1ccccc1)c1ccc(C#Cc2cnc([C@@H]3CCCN3C(=O)[C@H](NC(=O)OC(C)(C)C)c3ccccc3)[nH]2)cc1` [Compound 130], `C[C@@H](NC(=O)[C@@H]1CCCN1C(=O)[C@H](NC(=O)C1CC1)c1ccccc1)c1ccc(C#Cc2cnc([C@@H]3CCCN3C(=O)[C@H](NC(=O)C3CC3)c3ccccc3)[nH]2)cc1` [Compound 135] is higher in EC50: 10 to 999 nM for the first, over 1000 nM for the second. The first is the more potent here.

`CN(C)[C@@H](C(=O)N1CCC[C@H]1c1ncc(C#Cc2ccc(-c3cnc([C@@H]4CCCN4C(=O)[C@H](NC(=O)C4CC4)c4ccccc4)[nH]3)cc2)[nH]1)c1ccccc1` [Compound 133] and `COC(=O)N[C@H](C(=O)N1CCC[C@H]1c1ncc(C#Cc2ccc(-c3cnc([C@@H]4CCCN4C(=O)[C@@H](NC(=O)OC)C(C)C)[nH]3)cc2)[nH]1)C(C)C` [Compound 134] cannot be ordered by EC50: under 1 nM for the first, under 1 nM for the second.

In the case of `CC(C)[C@@H](NC(=O)OC(C)(C)C)C(=O)N1CCC[C@H]1c1ncc(-c2ccc(C#Cc3ccc(-c4cnc([C@@H]5CCCN5C(=O)[C@H](NC(=O)OC(C)(C)C)C(C)C)[nH]4)cc3)cc2)[nH]1` [Compound 152], the EC50 is reported as 10 to 999 nM.
